Assay results as given in US7511145B2 (Genelabs Technologies, Inc., priority 2003, dated 2009).

Target: T1, HCV-NS5b (Hepatitis C virus genotype 1b, UniProt Q9WMX2)
T1 construct: (His)6 (C); made in house; host or cells: XL-1 cells (E. coli), IPTG-inducible plasmid, nickel-NTA purification
Test: HCV-NS5b enzyme assay (incorporation of radiolabeled UTP)
Assay type: biochemical
Details: for inhibition at 33 µM: enzyme inhibition at compound concentration of 33 uM; for inhibition at 100 µM: read-out: % inh@100, enzyme inhibition at compound concentration of 100 uM
In short: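 Percent inhibition, background-corrected against uninhibited control, was measured at 100 and 33 uM compound. Incorporation of [3H]-UTP (10 μM each NTP) into biotinylated HCV-template RNA, 37° C for 2 h, pH 7.5, scintillation proximity. Enzyme: C-terminally truncated (21 aa), His6-tagged NS5b from XL-1.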

For O=C(O)c1ccc2c(c1)nc(-c1ccc3nc(-c4ccc(N5CCNCC5)cc4)ccc3c1)n2C1CCCCC1 [Compound 488, 1-cyclohexyl-2-[2-(4-piperazin-1-yl-phenyl)-quinolin-6-yl]-1H-benzoimidazole-5-carboxylic acid], the inhibition at 33 µM was 91.8% and the inhibition at 100 µM was 97.2%.
Work on O=C(O)c1ccc2c(c1)nc(-c1ccc3nc(-c4cc(OCCCN5CCCC5)ccc4-c4ccc(Cl)cc4)ccc3c1)n2C1CCCCC1 [Compound 447, 2-{2-[4′-Chloro-4-(3-pyrrolidin-1-yl-propoxy)-biphen-2-yl]-quinolin-6-yl}-1-cyclohexyl-1H-benzoimidazole-5-carboxylic acid] yielded an inhibition at 33 µM of 97.8% and an inhibition at 100 µM of 94.9%.
COc1ccc(-c2ccc(Cl)cc2)c(-c2ccc3cc(-c4nc5cc(C(=O)O)ccc5n4C4CCNCC4)ccc3n2)c1 [Compound 558, 2-[2-(4′-Chloro-4-methoxy-biphen-2-yl)-quinolin-6-yl]-1-piperidin-4-yl-1H-benzoimidazole-5-carboxylic acid] showed an inhibition at 33 µM of 32.5% and an inhibition at 100 µM of 77.3%.
O=C(O)c1ccc2c(c1)nc(-c1ccc3nc(-c4ccccn4)ccc3c1)n2C1CCCCC1 [Compound 427, 1-cyclohexyl-2-(2-pyridin-2-yl-quinolin-6-yl)-1H-benzoimidazole-5-carboxylic acid] showed an inhibition at 33 µM of 93.8% and an inhibition at 100 µM of 98.4%.
NNc1cc(-c2ccccc2)nc2ccc(-c3nc4cc(C(=O)O)ccc4n3C3CCCCC3)cc12 [Compound 466, 1-Cyclohexyl-2-(4-hydrazino-2-phenyl-quinolin-6-yl)-1H-benzoimidazole-5-carboxylic acid] was tested, and the inhibition at 33 µM was 92.9% and the inhibition at 100 µM was 100%.
Work on CCOC(=O)c1cnc2c(c1)nc(-c1ccc3nc(-c4cc(O)ccc4-c4ccc(Cl)cc4)ccc3c1)n2C1CCCCC1 [Compound 538, 2-[2-(4′-chloro-4-hydroxy-biphen-2-yl)-quinolin-6-yl]-3-cyclohexyl-3H-imidazo[4,5-b]pyridine-6-carboxylic acid Ethyl Ester] yielded an inhibition at 33 µM of 56.6% and an inhibition at 100 µM of 72.8%.
O=C(O)c1ccc2c(c1)nc(-c1ccc3nc(-c4cccc5ccccc45)ccc3c1)n2C1CCCCC1 [Compound 357, 1-cyclohexyl-2-(2-naphthalen-1-yl-quinolin-6-yl)-1H-benzoimidazole-5-carboxylic acid] was tested, and the inhibition at 33 µM was 98.8% and the inhibition at 100 µM was 101%.
COc1ccc(-c2cc(Cl)cc(Cl)c2)c(-c2ccc3cc(-c4nc5cc(C(=O)O)ccc5n4C4CCCCC4)ccc3n2)c1 [Compound 562, 1-Cyclohexyl-2-[2-(3′,5′-dichloro-4-methoxy-biphen-2-yl)-quinolin-6-yl]-1H-benzoimidazole-5-carboxylic acid] gave an inhibition at 33 µM of 102% and an inhibition at 100 µM of 101%.
CN1CCN(C(=O)c2ccc3c(c2)nc(-c2cc4ccc(-c5ccccc5-c5ccc(Cl)cc5)nc4cc2F)n3C2CCCCC2)CC1 [Compound 521, {2-[2-(4′-Chloro-biphen-2-yl)-7-fluoro-quinolin-6-yl]-1-cyclohexyl-1H-benzoimidazol-5-yl}-(4-methyl-piperazin-1-yl)-methanone] gave an inhibition at 33 µM of 84.8% and an inhibition at 100 µM of 91.4%.
O=C(O)c1ccc2c(c1)nc(-c1ccc3nc(-c4ccccc4[N+](=O)[O-])ccc3c1)n2C1CCCCC1 [Compound 446] gave an inhibition at 33 µM of 96.6% and an inhibition at 100 µM of 101%.
With O=C(N[C@@H](Cc1ccccc1)C(=O)O)c1ccc2c(c1)nc(-c1ccc3nc(-c4ccccc4)cnc3c1)n2C1CCCCC1 [Compound 246, 2-{[1-Cyclohexyl-2-(2-phenyl-quinoxalin-6-yl)-1H-benzoimidazole-5-carbonyl]-amino}-3-phenyl-propionic acid] the inhibition at 33 µM was 95.9% and the inhibition at 100 µM was 96.4%.
Work on O=C(O)c1ccc2c(c1)nc(-c1cc3ccc(-c4ccccc4-c4ccc(Cl)cc4)nc3cc1F)n2C1CCCCC1 [Compound 408, 2-[2-(4′-Chloro-biphen-2-yl)-7-fluoro-quinolin-6-yl]-1-cyclohexyl-1H-benzoimidazole-5-carboxylic acid] yielded an inhibition at 33 µM of 99.3% and an inhibition at 100 µM of 98.9%.
